Experimental data reported in PubChem BioAssay AID220 (DTP/NCI, 2004).
Where “and” joins values, the source holds several entries; their conditions need not be identical. Equal values may be shown once. Inconclusive results are not listed.

System: CD8F1 mice, subcutaneous mammary adenocarcinoma, T/C%
Test: NCI In Vivo Anticancer Drug Screen. Data for tumor model Mammary Adenocarcinoma CD8F1 (subcutaneous) in CD8F1
Details: higher = larger tumour
Method in brief: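 Tumor-bearing mice, transplantable model; readout survival or tumor size; value = treated (T) / vehicle control (C).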

[1] = endpoint: median tumor weight change, dose: 500.0 mg/kg/injection, schedule: Q01DX001 (ip), vehicle: saline with Tween-80
[2] = endpoint: median tumor weight change, dose: 2000.0 mg/kg/injection, schedule: Q01DX001 (ip), vehicle: saline with Tween-80
[3] = endpoint: median tumor weight (est.), dose: 6.25 mg/kg/injection, schedule: Q07DX005 (ip), vehicle: saline with Tween-80
[4] = endpoint: median tumor weight (est.), dose: 12.5 mg/kg/injection, schedule: Q07DX005 (ip), vehicle: saline with Tween-80
[5] = endpoint: median tumor weight (est.), dose: 25.0 mg/kg/injection, schedule: Q07DX005 (ip), vehicle: saline with Tween-80
[6] = endpoint: median tumor weight (est.), dose: 50.0 mg/kg/injection, schedule: Q07DX005 (ip), vehicle: saline with Tween-80
[7] = endpoint: median tumor weight (est.), dose: 200.0 mg/kg/injection, schedule: Q07DX005 (ip), vehicle: saline with Tween-80
[8] = endpoint: median tumor weight change, dose: 1000.0 mg/kg/injection, schedule: Q01DX001 (ip), vehicle: saline with Tween-80
[9] = endpoint: median tumor weight (est.), dose: 0.12 mg/kg/injection, schedule: Q07DX005 (ip), vehicle: saline
[10] = endpoint: median tumor weight (est.), dose: 0.25 mg/kg/injection, schedule: Q07DX005 (ip), vehicle: saline
[11] = endpoint: median tumor weight (est.), dose: 0.5 mg/kg/injection, schedule: Q07DX005 (ip), vehicle: saline
[12] = endpoint: median tumor weight (est.), dose: 1.0 mg/kg/injection, schedule: Q07DX005 (ip), vehicle: saline

With `C[Si](C)(C)O/C=C1/CCOC1=O` the T/C (endpoint: median tumor weight change, dose: 125.0 mg/kg/injection, schedule: Q01DX001 (ip), vehicle: saline) was 96 % of control, the T/C (endpoint: median tumor weight change, dose: 500.0 mg/kg/injection, schedule: Q01DX001 (ip), vehicle: saline) was 82 % of control and the T/C (endpoint: median tumor weight change, dose: 1000.0 mg/kg/injection, schedule: Q01DX001 (ip), vehicle: saline) was 72 % of control.

`Cc1ccc(S(=O)(=O)NC(=O)OC23COCN2COC3)cc1` was tested, and the T/C (endpoint: median tumor weight change, dose: 125.0 mg/kg/injection, schedule: Q01DX001 (ip), vehicle: water) was 170 % of control, the T/C (endpoint: median tumor weight change, dose: 250.0 mg/kg/injection, schedule: Q01DX001 (ip), vehicle: saline with Tween-80) was 111 % of control and the T/C [1] was 90 % of control. For the same molecule, the T/C (endpoint: median tumor weight change, dose: 500.0 mg/kg/injection, schedule: Q01DX001 (ip), vehicle: water) was 162 % of control, the T/C (endpoint: median tumor weight change, dose: 1000.0 mg/kg/injection, schedule: Q01DX001 (ip), vehicle: water) was 222 % of control and the T/C [2] was 74 % of control. The T/C (endpoint: median tumor weight change, dose: 2000.0 mg/kg/injection, schedule: Q01DX001 (ip), vehicle: water) was 184 % of control.

With `CN1C(=O)CC2(CCN(CCCC(=O)c3ccc(F)cc3)CC2)C1=O` the T/C (endpoint: median tumor weight (est.), dose: 6.25 mg/kg/injection, schedule: Q07DX005 (ip), vehicle: saline) was 112 % of control, the T/C (endpoint: median tumor weight (est.), dose: 6.25 mg/kg/injection, schedule: Q07DX005 (ip), vehicle: suspension in saline) was 52 % of control and the T/C (endpoint: median tumor weight (est.), dose: 12.5 mg/kg/injection, schedule: Q07DX005 (ip), vehicle: saline) was 62 % of control. For the same molecule, the T/C (endpoint: median tumor weight (est.), dose: 12.5 mg/kg/injection, schedule: Q07DX005 (ip), vehicle: suspension in saline) was 108 % of control, the T/C (endpoint: median tumor weight (est.), dose: 25.0 mg/kg/injection, schedule: Q07DX005 (ip), vehicle: saline) was 170 % of control and the T/C (endpoint: median tumor weight (est.), dose: 50.0 mg/kg/injection, schedule: Q07DX005 (ip), vehicle: saline) was 117 % of control. For the same molecule, the T/C (endpoint: median tumor weight (est.), dose: 50.0 mg/kg/injection, schedule: Q07DX005 (ip), vehicle: suspension in saline) was 258 % of control and the T/C (endpoint: median tumor weight (est.), dose: 100.0 mg/kg/injection, schedule: Q07DX005 (ip), vehicle: suspension in saline) was 122 % of control.

With `C/C(=N/NC(N)=S)c1ccc2ccccc2c1` the T/C (endpoint: median tumor weight (est.), dose: 3.12 mg/kg/injection, schedule: Q07DX005 (ip), vehicle: saline with Tween-80) was 152 % of control, the T/C [3] was 95 % of control and 100 % of control and the T/C [4] was 69 % of control and 72 % of control.

In the case of `ClC1C(Cl)C(Cl)C(Cl)C(Cl)C1Cl` (centres undefined), the T/C (endpoint: median tumor weight change, dose: 62.5 mg/kg/injection, schedule: Q01DX001 (ip), vehicle: Klucel (hydroxypropylcellulose) (HPC)) is reported as 169 % of control, the T/C (endpoint: median tumor weight change, dose: 125.0 mg/kg/injection, schedule: Q01DX001 (ip), vehicle: Klucel (hydroxypropylcellulose) (HPC)) is reported as 105 % of control and the T/C (endpoint: median tumor weight change, dose: 250.0 mg/kg/injection, schedule: Q01DX001 (ip), vehicle: Klucel (hydroxypropylcellulose) (HPC)) is reported as 115 % of control. The T/C (endpoint: median tumor weight change, dose: 500.0 mg/kg/injection, schedule: Q01DX001 (ip), vehicle: Klucel (hydroxypropylcellulose) (HPC)) was 64 % of control.

In the case of `COC1C(CO)OC(n2cnc3c(=S)nc(N)[nH]c32)C1O` (centres undefined), the T/C (endpoint: median tumor weight (est.), dose: 12.5 mg/kg/injection, schedule: Q07DX005 (ip), vehicle: Klucel (hydroxypropylcellulose) (HPC)) is reported as 109 % of control, the T/C (endpoint: median tumor weight (est.), dose: 25.0 mg/kg/injection, schedule: Q07DX005 (ip), vehicle: Klucel (hydroxypropylcellulose) (HPC)) is reported as 116 % of control and the T/C (endpoint: median tumor weight (est.), dose: 50.0 mg/kg/injection, schedule: Q07DX005 (ip), vehicle: Klucel (hydroxypropylcellulose) (HPC)) is reported as 112 % of control. For the same molecule, the T/C (endpoint: median tumor weight (est.), dose: 100.0 mg/kg/injection, schedule: Q07DX005 (ip), vehicle: Klucel (hydroxypropylcellulose) (HPC)) was 79 % of control, the T/C (endpoint: median tumor weight (est.), dose: 200.0 mg/kg/injection, schedule: Q07DX005 (ip), vehicle: Klucel (hydroxypropylcellulose) (HPC)) was 28 % of control and the T/C (endpoint: median tumor weight (est.), dose: 400.0 mg/kg/injection, schedule: Q07DX005 (ip), vehicle: Klucel (hydroxypropylcellulose) (HPC)) was 22 % of control.

With `NC(=O)c1[nH]nc(C2OC(CO)C(O)C2O)c1O` (centres undefined) the T/C (endpoint: median tumor weight (est.), dose: 0.31 mg/kg/injection, schedule: Q07DX005 (ip), vehicle: saline) was 123 % of control, the T/C (endpoint: median tumor weight (est.), dose: 0.62 mg/kg/injection, schedule: Q07DX005 (ip), vehicle: saline) was 85 % of control and the T/C (endpoint: median tumor weight (est.), dose: 1.25 mg/kg/injection, schedule: Q07DX005 (ip), vehicle: saline) was 77 % of control. The T/C (endpoint: median tumor weight (est.), dose: 2.5 mg/kg/injection, schedule: Q07DX005 (ip), vehicle: saline) was 28 % of control, the T/C (endpoint: median tumor weight (est.), dose: 5.0 mg/kg/injection, schedule: Q07DX005 (ip), vehicle: saline) was 53 % of control and the T/C (endpoint: median tumor weight (est.), dose: 10.0 mg/kg/injection, schedule: Q07DX005 (ip), vehicle: saline) was 29 % of control.

With `CCOC(=O)C1(c2ccccc2)C(=O)Oc2ccccc21` (centres undefined) the T/C [4] was 84 % of control, the T/C [5] was 69 % of control and the T/C [6] was 97 % of control. The T/C (endpoint: median tumor weight (est.), dose: 100.0 mg/kg/injection, schedule: Q07DX005 (ip), vehicle: saline with Tween-80) was 119 % of control, the T/C [7] was 113 % of control and the T/C (endpoint: median tumor weight (est.), dose: 400.0 mg/kg/injection, schedule: Q07DX005 (ip), vehicle: saline with Tween-80) was 70 % of control. The T/C (endpoint: median tumor weight change, dose: 125.0 mg/kg/injection, schedule: Q01DX001 (ip), vehicle: saline with Tween-80) was 82 % of control, the T/C [1] was 71 % of control and the T/C [8] was 61 % of control. The T/C [2] was 100 % of control.

In the case of `C1CN1c1nc(N2CC2)nc(N2CC2)n1`, the T/C [9] is reported as 64 % of control and 86 % of control, the T/C [10] is reported as 23 % of control and 28 % of control and the T/C [11] is reported as 6 % of control and 10 % of control. The T/C [12] was 1 % of control, the T/C (endpoint: median tumor weight change, dose: 0.62 mg/kg/injection, schedule: Q01DX001 (ip), vehicle: suspension in saline) was 18 % of control and the T/C (endpoint: median tumor weight change, dose: 2.5 mg/kg/injection, schedule: Q01DX001 (ip), vehicle: suspension in saline) was -17 % of control and -41 % of control.

In the case of `OC1CCCC2CCCNC12` (centres undefined), the T/C [3] is reported as 206 % of control, the T/C [4] is reported as 102 % of control and the T/C [5] is reported as 171 % of control. The T/C [6] was 73 % of control.

For `Cc1c(N)nc(C(CC(N)=O)NCC(N)C(N)=O)nc1C(=O)NC(C(=O)NC(C)C(O)CC(=O)NC(C(=O)NC(OC1OC(C)C(N)C(O)C1O)C(O)c1nc(-c2nc(C(=O)NCCCC(N)CC(=O)NCCCNCCCCN)cs2)cs1)C(C)O)C(OC1OC(CO)C(O)C(O)C1OC1OC(CO)C(O)C(OC(N)=O)C1O)c1cnc[nH]1` (centres undefined), the T/C (endpoint: median tumor weight (est.), dose: 2.0 mg/kg/injection, schedule: Q07DX005 (ip), vehicle: saline) was 15 % of control, the T/C (endpoint: median tumor weight (est.), dose: 4.0 mg/kg/injection, schedule: Q07DX005 (ip), vehicle: saline) was 20 % of control and the T/C (endpoint: median tumor weight (est.), dose: 8.0 mg/kg/injection, schedule: Q07DX005 (ip), vehicle: saline) was 10 % of control.

`CCC1(O)CC2CN(CCc3c([nH]c4ccccc34)C(C(=O)OC)(c3cc4c(cc3OC)N(C)C3C(O)(C(N)=O)C(O)C5(CC)C=CCN6CCC43C65)C2)C1` (centres undefined) (tested in a mixture with another compound) was tested, and the T/C [9] was 87 % of control, the T/C [10] was 74 % of control and the T/C [11] was 51 % of control. The T/C [12] was 16 % of control.

In the case of `COc1ccc(S(=O)(=O)N/N=C/C(=O)O)cc1`, the T/C [3] is reported as 55 % of control, the T/C [4] is reported as 198 % of control and the T/C [5] is reported as 73 % of control and 82 % of control. The T/C [6] was 206 % of control and the T/C [7] was 44 % of control and 61 % of control.

With `CC/C(=C(\c1ccccc1)c1ccc(OCCN(C)C)cc1)c1ccccc1` the T/C (endpoint: mean tumor weight (est.), dose: 150.0 mg/kg/injection, schedule: Q07DX002 (ip), vehicle: saline) was 102 % of control, the T/C (endpoint: mean tumor weight (est.), dose: 200.0 mg/kg/injection, schedule: Q07DX002 (ip), vehicle: saline) was 100 % of control and the T/C (endpoint: mean tumor weight, dose: 100.0 mg/kg/injection, schedule: Q07DX007 (ip), vehicle: saline) was 45 % of control. The T/C (endpoint: mean tumor weight, dose: 150.0 mg/kg/injection, schedule: Q07DX008 (ip), vehicle: saline) was 52 % of control, the T/C (endpoint: mean tumor weight, dose: 200.0 mg/kg/injection, schedule: Q07DX007 (ip), vehicle: saline) was 15 % of control and the T/C (endpoint: mean tumor weight, dose: 200.0 mg/kg/injection, schedule: Q07DX008 (ip), vehicle: saline) was 31 % of control. For the same molecule, the T/C (endpoint: median tumor weight change, dose: 25.0 mg/kg/injection, schedule: Q01DX001 (ip), vehicle: suspension in saline) was 105 % of control, the T/C (endpoint: median tumor weight change, dose: 50.0 mg/kg/injection, schedule: Q01DX001 (ip), vehicle: suspension in saline) was 111 % of control and the T/C (endpoint: median tumor weight change, dose: 100.0 mg/kg/injection, schedule: Q01DX001 (ip), vehicle: suspension in saline) was 150 % of control. For the same molecule, the T/C (endpoint: median tumor weight change, dose: 200.0 mg/kg/injection, schedule: Q01DX001 (ip), vehicle: suspension in saline) was 158 % of control.

With `COC1C=CC23c4cc5c(cc4C(O)OC2CN(C)C3C1)OCO5` (centres undefined) the T/C (endpoint: median tumor weight (est.), dose: 18.75 mg/kg/injection, schedule: Q07DX005 (ip), vehicle: saline) was 154 % of control, the T/C (endpoint: median tumor weight (est.), dose: 37.5 mg/kg/injection, schedule: Q07DX005 (ip), vehicle: saline) was 205 % of control and the T/C (endpoint: median tumor weight (est.), dose: 75.0 mg/kg/injection, schedule: Q07DX005 (ip), vehicle: saline) was 88 % of control. The T/C (endpoint: median tumor weight (est.), dose: 150.0 mg/kg/injection, schedule: Q07DX005 (ip), vehicle: saline) was 120 % of control.

With `OC1(CSc2ccccc2)CCCCC1` the T/C [8] was 13 % of control.
